Assay results taken from patent US20030207813A1, “Retroviral protease inhibitor combinations” (priority 1995, published 2003).
≈ marks a conversion by molar mass, not a printed value.

Experiments:
Type in all cases: cell-based, HIV-1
[1] = tested on: RFRR (resistant strains selected from RF against Examples 1 and 2); assay: CEM-T4 cell infection assay, reverse transcriptase readout, resistant isolate RFRR; details: Human immunodeficiency virus 1, 168 h, Table 6, CEM-T4 cells, 7 days, read-out: Virus Isolate (EC50 ng/mL) RFRR
Source text: (§1) RF represents the HIV-1 strain HIV-LRF and RFR represents a mixture of resistant strains obtained by selection of RF against the compound of Example 1. RFR comprises a mixture of viral strains having protease genotypes of G48V (14/40 clones); G48V, V82A (18/40 clones); G48V, L90S (2/40 clones); G48V, 154T, V82A (1/40 clones); G48M (1/40 clones); G48V, Q61H (1/40 clones); V13I, G48V (1/40 clones); G48V, F53L, V82A (1/40 clones); and G48V, V82A, C95Y (1/40 clones). RFR2 represents a mixture of resistant strains obtained by cloning RFR by three rounds of growth at limiting dilution. RFR2 comprises a mixture of viral strains having protease genotypes of G48V, V82A (13/15 clones); G17E, G48V, V82A (1/15 clones); and G48V, V82A, N37D, N88D (1/15 clones). RFRR represents a mixture of resistant strains obtained by selection of RF against the compounds of Examples 1 and 2 and then cloning by three rounds of growth at limiting dilution. RFRR comprises a mixture of viral strains having protease genotypes of G48V, 154T, L63P, V82A (7/9 clones); G48V, 154T, L63P, V82A, N88S (1/9 clones); and G48V, 154T, L63P, G73M, V82A (1/9 clones). SF162 represents the HIV-1 strain SF-162 and SF162R represents a mixture of resistant strains obtained by selection of SF162 against the compound of Example 1. SF162R comprises a mixture of viral strains having protease genotypes of M461, F53L, L63P, A71V, N88D (2/3 clones); and M46I, F53L, L63P, A71V, N88D, Q92R (1/3 clones). 89-959 represents the HIV-1 strain 89-959 and 89-959R represents a mixture of resistant strains obtained by selection of 89-959 against the compound of Example 2. 89-959R comprises a mixture of viral strains having protease genotypes of N88S (4/5 clones); and D25N, T26A, D30N, D37N, R41K, G73D, R87K, N88S (1/4 clones). NL4 represents the HIV-1 strain HIV-1NL4-3. NL4(G48V) represents a strain having a synthetically generated site-directed mutation in the protease from glycine to valine at amino acid position number 48. NL4(I84V) represents a strain having a synthetically generated site-directed mutation in the protease from isoleucine to valine at amino acid position number 84. NL4(R8Q,M46I) represents a strain having synthetically generated site-directed mutations in the protease from arginine to glutamine at amino acid position number 8 and methionine to isoleucine at amino acid position number 46. NL4(P22-538) represents a mixture of resistant strains obtained by selection of HIV-1NL4-3 against the compound of Example 10 after 22 passages comprising protease genotypes M46I, L63P, A71V, V82F, I84V (4/10); M46I, L63P, V82F, I84V (3/10); and M46I, A71V, V82F, I84V (3/10). NL4(P37-538) represents resistant strains obtained by selection of HIV-1NL4-3 against the compound of Example 10 after 37 passages comprising protease genotype M46I, L63P, A71V, 184A. NL4(538/524) represents resistant strains obtained by selection of NL4(P22-538) against the compound of Example 5 after 24 passages comprising protease genotype M46I, L63P, A71V, 184A. NL4(538/P7-AG) represents a mixture of resistant strains obtained by selection of NL4(P22-538) against the compound of Example 12 after 7 passages comprising protease genotypes M46I, L63P, A71V, 184A; and V321, V82I. NL4(538/P24-AG) represents resistant strains obtained by selection of NL4(P22-538) against the compound of Example 12 after 24 passages comprising protease genotype M46I, L63P, A71V, 184A. NLA(P19-003) represents resistant strains obtained by selection of HIV-1^NL4-3 against the compound of Example 9 after 19 passages comprising protease genotype R8K, M46I. NL4(P34-003) represents resistant strains obtained by selection of HIV-1^NL4-3 against the compound of Example 9 after 34 passages comprising protease genotype R8K, M46I, L63P, A71V, L90M.
The viral isolate resistance results summarized in Tables 4-6 were generated according to the following assay procedure or minor modifications thereof. Assays are performed in 96-well tissue culture plates. […]

NL4(P22-538) = assay: Viral isolate resistance assay per Markowitz et al., NL4(P22-538); details: Human immunodeficiency virus 1; Table 9; selected against Example 10, 22 passages; read-out: Virus Isolate (EC50 nM) NL4(P22-538)
Source text: as §1, with “NLA(P19-003) represents resistant strains obtained by selection of HIV-1^NL4-3 against the compound of Example 9 after 19 passages comprising protease genotype R8K, M46I. NL4(P34-003) represents resistant strains obtained by selection of HIV-1^NL4-3 against the compound of Example 9 after 34 passages comprising protease genotype R8K, M46I, L63P, A71V, L90M.” left out

NL4(538/524) = assay: Viral isolate resistance assay per Markowitz et al., NL4(538/524); details: Human immunodeficiency virus 1; Table 10; NL4(P22-538) selected against Example 5, 24 passages
Source text: as §1, with “NLA(P19-003) represents resistant strains obtained by selection of HIV-1^NL4-3 against the compound of Example 9 after 19 passages comprising protease genotype R8K, M46I. NL4(P34-003) represents resistant strains obtained by selection of HIV-1^NL4-3 against the compound of Example 9 after 34 passages comprising protease genotype R8K, M46I, L63P, A71V, L90M.” left out

NL4(538/P7-AG) = assay: Viral isolate resistance assay per Markowitz et al., NL4(538/P7-AG); details: Human immunodeficiency virus 1; Table 10; NL4(P22-538) selected against Example 12, 7 passages
Source text: as §1, with “NLA(P19-003) represents resistant strains obtained by selection of HIV-1^NL4-3 against the compound of Example 9 after 19 passages comprising protease genotype R8K, M46I. NL4(P34-003) represents resistant strains obtained by selection of HIV-1^NL4-3 against the compound of Example 9 after 34 passages comprising protease genotype R8K, M46I, L63P, A71V, L90M.” left out

NL4(538/P24-AG) = assay: Viral isolate resistance assay per Markowitz et al., NL4(538/P24-AG); details: Human immunodeficiency virus 1; Table 10; NL4(P22-538) selected against Example 12, 24 passages
Source text: as §1, with “NLA(P19-003) represents resistant strains obtained by selection of HIV-1^NL4-3 against the compound of Example 9 after 19 passages comprising protease genotype R8K, M46I. NL4(P34-003) represents resistant strains obtained by selection of HIV-1^NL4-3 against the compound of Example 9 after 34 passages comprising protease genotype R8K, M46I, L63P, A71V, L90M.” left out

Row | Compound | EC50 [1] [ng/mL] | EC50 (NL4(P22-538)) [nM] | EC50 (NL4(538/524)) [nM] | EC50 (NL4(538/P7-AG)) [nM] | EC50 (NL4(538/P24-AG)) [nM]
1 | CC(C)CN(C[C@@H](O)[C@H](Cc1ccccc1)NC(=O)[C@H](CC(N)=O)NC(=O)c1ccc2ccccc2n1)C(=O)NC(C)(C)C (relative stereo) [Example 1, [1S-[1R*(R*),2S*]]-N^1-[3-[[[(1,1-dimethylethyl)amino]carbonyl])2-methylpropyl)amino]-2-hydroxy-1-(phenylmethyl)propyl]-2-[(2-quinolinylcarbonyl)amino]-butanediamide] | 5610 (≈ 9.27 µM) |  |  |  | 
2 | CC(C)(C)NC(=O)[C@@H]1CC2CCCC[C@@H]2CN1C[C@@H](O)[C@H](Cc1ccccc1)NC(=O)[C@H](CC(N)=O)NC(=O)c1ccc2ccccc2n1 (stereo in doubt) [Example 6, N-tert-Butyl decahydro-2-[2(R)-hydroxy-4-phenyl-3(S)-[[N-(2-quinolylcarbonyl)-L-asparaginyl]amino]butyl]-(4aR,8aS)-isoquinoline-3(S)-carboxamide] | 962 (≈ 1.43 µM) | 150 | 2400 | 2400 | 2400
3 | CNCC(=O)N[C@H](C(=O)N[C@@H](Cc1ccccc1)[C@H](O)CN(CCC(C)C)C(=O)NC(C)(C)C)C(C)(C)C [Example 2, (2R,3S)-3-(N-methylaminoacetyl-L-tert-butylglycinyl)amino-1-(N-isoamyl-N-(tert-butylcarbamoyl))amino-4-phenyl-2-butanol] | 1110 (≈ 2.08 µM) |  |  |  | 
4 | CC(C)(C)NC(=O)[C@@H]1CN(Cc2cccnc2)CCN1C[C@@H](O)C[C@@H](Cc1ccccc1)C(=O)N[C@H]1c2ccccc2C[C@H]1O [Example 5, N-(2(R)-Hydroxy-1(S)-indanyl)-2(R)-phenylmethyl-4(S)-hydroxy-5-(1-(4-(3-pyridylmethyl)-2(S)-N′-(t-butylcarboxamido)-piperazinyl))-pentaneamide] | 982 (≈ 1.6 µM) | 800 | 6400 | 6400 | 6400
